Assay results published in patent US20050267050A1, “Compositions and methods for treating mdma-induced toxicity” (YEDA RESEARCH AND DEVELOPMENT CO. LTD., priority 2002, published 2005).

System: MDMA acute toxicity in mice
Test: Protective activity against MDMA acute toxicity (survival) in mice
Assay type: in vivo, C57B1/6J mice
Settings: inhibitor i.p. 5-120 minutes before toxic dose of MDMA; FIG. 6A
Experimental: Next step was to determine whether compounds blocking the enhanced expression of GABA transporters may restraint MDMA-induced hyperthermia. We ran trials to determine whether the mortality levels causes by MDMA administration would be affected by treatment with suspected GABA transporter inhibiting compounds Tiagabine, nipecotic acid derivative NO-711, and Vigabatrin which have been used hitherto as anti-epileptics.
Mice were administered dose(s) of mg/ml of MDMA according to the following schedule and were […] injected with a dose of the GABA transporter blocker. In the first set of experiments the effective toxic dose of MDMA was determined. C57B1/6J mice, 2-3 months old, 6 mice in each group, were tested with different concentration of the drug, prepared in saline and injected intraperitoneally. Saline solution was used as a control. The lowest concentration of the drug causing 100% death within 60 minutes was used in the following experiments. Mice (8 in each group) were injected (i.p.) with different concentrations of the tested GABA transporter inhibitor, or other compound, and 5-120 minutes later were injected with the toxic dose of MDMA. […]

## Cl.O=C(O)C1=CCCN(CCON=C(c2ccccc2)c2ccccc2)C1 [NO-711, 1-(2(((diphenylmethylene)imino)oxy)ethyl)-1,2,5,6-tetrahydro-3-pyridinecarboxylic acid hydrochloride]
  Survival of MDMA-treated mice: significantly improved the survival
